How the values were obtained:
[1] = target: T1, rat adrenergic α1B receptor (Rattus norvegicus, UniProt P15823); experiment: Adrenergic α1B radioligand binding ([3H]Prazosin); conditions: 0.1 μM compound; for Percentage inhibition of ligand binding, Adrenergic α1B: 0.1 µM; for inhibition at 0.1 µM: read-out: Percentage inhibition of ligand binding, Adrenergic α1B
T1 construct: rat adrenergic α1B receptor obtained from Wistar Rat liver; from tissue; host or cells: Wistar rat liver
T1 sequence (P15823 1-515): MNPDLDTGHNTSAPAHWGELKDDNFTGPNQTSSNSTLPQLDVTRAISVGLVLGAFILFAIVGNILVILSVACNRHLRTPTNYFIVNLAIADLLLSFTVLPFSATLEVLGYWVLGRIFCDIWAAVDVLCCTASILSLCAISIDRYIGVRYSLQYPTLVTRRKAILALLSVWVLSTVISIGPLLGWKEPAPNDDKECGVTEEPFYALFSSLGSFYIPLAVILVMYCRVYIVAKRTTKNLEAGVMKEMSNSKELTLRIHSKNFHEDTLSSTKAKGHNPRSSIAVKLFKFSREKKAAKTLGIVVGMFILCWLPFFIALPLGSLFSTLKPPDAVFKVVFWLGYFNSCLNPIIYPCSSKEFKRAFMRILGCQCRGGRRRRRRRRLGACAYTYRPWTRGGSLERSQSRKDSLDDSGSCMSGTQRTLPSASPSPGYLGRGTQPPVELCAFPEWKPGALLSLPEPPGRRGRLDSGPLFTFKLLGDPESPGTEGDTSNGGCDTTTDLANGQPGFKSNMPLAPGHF
Method: To evaluate in radioligand binding assays the activity of compounds of the invention, rat adrenergic α1B receptor obtained from Wistar Rat liver (Garcia-S'ainz, J. et al, Biochem. Biophys. Res. Commun. 186:760, 1992; Michel, A. et al, Br. J. Pharmacol. 98:883, 1989) in a modified Tris-HCl buffer (50 mM Tris-HCl buffer, pH 7.4, 0.5 mM EDTA) was used. Compounds of the invention were incubated with 0.25 nM [^3H]Prazosin for 60 min at 25° C. Non-specific binding was estimated in the presence of 10 μM phentolamine. Receptor proteins were filtered and washed, the filters were then counted to determine [^3H]Prazosin specifically bound. Compounds were screened at 1 μM or lower, using 1% DMSO as vehicle. Biochemical assay results are presented as the percent inhibition of specific binding in Table 3.

[2] = target: T2, human recombinant serotonin (5-Hydroxytryptamine) 5-HT2C receptor (Homo sapiens, UniProt P28335); experiment: Serotonin 5-HT2C radioligand binding ([3H]Mesulergine); conditions: 0.1 μM compound; for Percentage inhibition of ligand binding, Serotonin 5-HT2C: 0.1 µM; for inhibition at 0.1 µM: read-out: Percentage inhibition of ligand binding, Serotonin 5-HT2C
T2 construct: expressed in transfected cells; host or cells: CHO-K1
T2 sequence (P28335 33-458): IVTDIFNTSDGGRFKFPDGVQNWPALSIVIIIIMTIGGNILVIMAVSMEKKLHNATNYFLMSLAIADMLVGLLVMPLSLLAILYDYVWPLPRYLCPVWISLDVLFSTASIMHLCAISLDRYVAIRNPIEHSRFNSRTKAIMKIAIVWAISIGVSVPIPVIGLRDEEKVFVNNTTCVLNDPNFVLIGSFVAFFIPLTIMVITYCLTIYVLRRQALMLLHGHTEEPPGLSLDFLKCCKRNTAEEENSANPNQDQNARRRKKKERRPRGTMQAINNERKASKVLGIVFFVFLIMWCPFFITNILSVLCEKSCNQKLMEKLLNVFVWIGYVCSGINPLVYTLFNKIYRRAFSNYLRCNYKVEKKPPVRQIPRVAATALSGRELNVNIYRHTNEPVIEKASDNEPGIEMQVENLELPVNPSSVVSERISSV
Method: To evaluate in radioligand binding assays the activity of compounds of the invention, human recombinant serotonin (5-Hydroxytryptamine) 5-HT2C receptor expressed in Chinese hamster ovary (CHO) K1 cells (Wolf, W. et al, J. Neurochem. 69:1449, 1997) in a modified Tris-HCl buffer (50 mM Tris-HCl, pH 7.4, 0.1% Ascorbic Acid, 10 μM Pargyline) was used. Compounds of the invention were incubated with 1 nM [^3H]Mesulergine for 60 min at 25° C. Non-specific binding was estimated in the presence of 1 μM Mianserin. Receptor proteins were filtered and washed, the filters were then counted to determine [^3H]Mesulergine specifically bound. Compounds were screened at 1 μM or lower, using 1% DMSO as vehicle. Biochemical assay results are presented as the percent inhibition of specific binding in Table 5.

[3] = target: T3, human recombinant serotonin (5-Hydroxytryptamine) 5-HT6 receptor (Homo sapiens, UniProt P50406); experiment: Serotonin 5-HT6 radioligand binding ([3H]LSD); conditions: 0.1 μM compound; read-out: Percentage inhibition of ligand binding, Serotonin 5-HT6
T3 construct: expressed in transfected cells; host or cells: HeLa
T3 sequence (P50406 whole entry): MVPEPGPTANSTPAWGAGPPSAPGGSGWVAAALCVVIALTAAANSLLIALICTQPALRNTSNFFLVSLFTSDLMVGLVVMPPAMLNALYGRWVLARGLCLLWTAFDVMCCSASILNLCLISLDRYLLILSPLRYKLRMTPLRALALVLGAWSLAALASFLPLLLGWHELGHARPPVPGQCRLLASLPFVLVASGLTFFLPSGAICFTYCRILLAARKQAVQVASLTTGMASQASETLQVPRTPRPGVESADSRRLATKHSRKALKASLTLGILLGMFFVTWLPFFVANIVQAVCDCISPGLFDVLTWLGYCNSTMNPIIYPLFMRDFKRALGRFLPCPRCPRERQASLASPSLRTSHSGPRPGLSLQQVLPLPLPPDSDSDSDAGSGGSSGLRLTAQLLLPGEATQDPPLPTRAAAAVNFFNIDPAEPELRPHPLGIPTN
Method: To evaluate in radioligand binding assays the activity of compounds of the invention, human recombinant serotonin (5-Hydroxytryptamine) 5-HT6 receptor expressed in human HeLa cells (Monsma, F. Jr. et al, Mol. Pharmacol. 43:320, 1993) in a modified Tris-HCl buffer (50 mM Tris-HCl, pH 7.4, 150 mM NaCl, 2 mM Ascorbic Acid, 0.001% BSA) was used. Compounds of the invention were incubated with 1.5 nM [3H]Lysergic acid diethylamide (LSD) for 120 min at 37° C. Non-specific binding was estimated in the presence of 5 μM Serotonin (5-HT). Receptor proteins were filtered and washed, the filters were then counted to determine [3H]LSD specifically bound. Compounds were screened at 1 μM or lower, using 1% DMSO as vehicle. Biochemical assay results are presented as the percent inhibition of specific binding in Table 5.

Structure (SMILES)	Percentage inhibition of ligand binding, Adrenergic α1B [1] [%]	Percentage inhibition of ligand binding, Serotonin 5-HT2C [2] [%]	inhibition at 0.1 µM [2] [%]	inhibition at 0.1 µM [1] [%]	inhibition at 0.1 µM [3] [%]
Cc1ccc2c(c1)c1c(n2CC2(O)CCCc3cnccc32)CCN(C)C1 (single isomer, unassigned) [ii-74a]	12	28	–	–	–
Cc1ccc2c(c1)c1c(n2CC2(O)CCCc3cnccc32)CCN(C)C1 (single isomer, unassigned) [ii-74b]	83	53	–	–	–
Cc1ccc2c(c1)c1c(n2CC2(O)CCCc3ncccc32)CCN(C)C1 (single isomer, unassigned) [ii-112a]	79	–	42	–	–
Cc1ccc2c(c1)c1c(n2CC2(O)CCCc3ncccc32)CCN(C)C1 (single isomer, unassigned) [ii-112b]	14	37	–	–	–
Cc1ccc2c(c1)c1c(n2CC2(O)CCCc3ccncc32)CCN(C)C1 (single isomer, unassigned) [ii-113a]	5	–	37	–	–
Cc1ccc2c(c1)c1c(n2/C=C2/CCCc3ccccc32)CCN(C)C1 [i-2]	–	–	100	85	102
Cc1ccc2c(c1)c1c(n2/C=C2\CCCc3ccccc32)CCN(C)C1 [i-3]	–	–	100	66	83

From US9035056B2, “Pyrido[4,3-b]indole and pyrido[3,4-b]indole derivatives and methods of use” (Medivation Technologies, Inc., priority 2011, dated 2015)
